Assay results taken from patent US10167262B2, “Herbicidal substituted 3-arylpyrazoles” (FMC CORPORATION, priority 2014, dated 2019).

Tests used:
Type in all cases: in vivo
[1] = test system: johnsongrass (Sorghum halepense); test: Test E pre-/postemergence greenhouse test, plant response rating 0-100; conditions: Preemergence, scale 0 to 100
[2] = test system: ducksalad (Heteranthera limosa); test: Test B flooded paddy test, plant response rating 0-100; conditions: Flood, 250 g ai/ha; scale 0 to 100 (0 no effect, 100 complete control); 13 to 15 days
Method in brief: (§1)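 Pots were flooded to 3 cm above the soil surface at treatment, compound applied directly to the paddy water, and that depth held throughout. Plants were kept in a greenhouse for 13 to 15 days, then visually rated against untreated controls.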

[3] = test system: sedge, umbrella (small-flower umbrella sedge, Cyperus difformis); test: as above; conditions: Flood, 250 g ai/ha; scale 0 to 100 (0 no effect, 100 complete control); 13 to 15 days
Method in brief: as §1

rice (Oryza sativa) = test: as above; conditions: Flood, 250 g ai/ha; scale 0 to 100 (0 no effect, 100 complete control); 13 to 15 days
Method in brief: as §1

[4] = test system: barnyardgrass (Echinochloa crus-galli); test: as above; conditions: Flood, 250 g ai/ha; scale 0 to 100 (0 no effect, 100 complete control); 13 to 15 days
Method in brief: as §1

kochia (Kochia scoparia) = test: Test E pre-/postemergence greenhouse test, plant response rating 0-100; conditions: Preemergence, scale 0 to 100
Method in brief: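 Pre: seeded silt loam sprayed; post: 1–4-leaf plants (2–18 cm) in peat-based mix sprayed. Formulation: non-phytotoxic solvent + surfactant. Greenhouse 14–21 d; visual rating vs controls, 0 = no effect, 100 = complete control.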

[5] = test system: smartweed (ladysthumb smartweed, Polygonum persicaria); test: as above; conditions: Postemergence, scale 0 to 100
[6] = test system: yellow nutsedge (Cyperus esculentus); test: as above; conditions: Preemergence, scale 0 to 100
[7] = test system: large (Lg) crabgrass (Digitaria sanguinalis); test: as above; conditions: Preemergence, scale 0 to 100
[8] = test system: surinam grass (Brachiaria decumbens); test: Test C postemergence greenhouse test, plant response rating 0-100; conditions: for Plant response rating, Surinam Grass: scale 0 to 100
Method in brief: (§2)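 Formulated compounds applied postemergence; plants 1- to 4-leaf stage. Evaluated visually vs. untreated controls after roughly two weeks (13–15 d) under greenhouse conditions; 100 denotes complete control.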

[9] = test system: bermudagrass (Cynodon dactylon); test: as above; conditions: for Plant response rating, Bermudagrass: scale 0 to 100
Method in brief: as §2

[10] = test system: downy bromegrass (Bromus tectorum); test: as above; conditions: for Plant response rating, Bromegrass, Downy: scale 0 to 100
Method in brief: as §2

[11] = test system: green foxtail (Setaria viridis); test: as above; conditions: for Plant response rating, Foxtail, Green: scale 0 to 100
Method in brief: as §2

[12] = test system: winter barley (Hordeum vulgare); test: as above; conditions: for Plant response rating, Barley: scale 0 to 100
Method in brief: as §2

[13] = test system: windgrass (Apera spica-venti); test: as above; conditions: for Plant response rating, Windgrass: scale 0 to 100
Method in brief: as §2

SMILES: O=C(c1ccccc1)c1cn(CO)nc1-c1cc(Cl)cc(Cl)c1 [Compound 15, [3-(3,5-dichlorophenyl)-1-(hydroxymethyl)-1H-pyrazol-4-yl]phenylmethanone]
- Johnsongrass plant response rating ([1]; 31 g ai/ha): 0
- Johnsongrass plant response rating ([1]; 62 g ai/ha): 0
- Johnsongrass plant response rating ([1]; 125 g ai/ha): 0
- Johnsongrass plant response rating ([1]; 250 g ai/ha): 0
- Johnsongrass plant response rating ([1]; 500 g ai/ha): 0
- Plant response rating, Ducksalad [2]: 0
- Plant response rating, Sedge, Umbrella [3]: 0
- Plant response rating, Rice (rice (Oryza sativa)): 0
- Plant response rating, Barnyardgrass [4]: 0
- Kochia plant response rating (kochia (Kochia scoparia); 31 g ai/ha): 0
- Kochia plant response rating (kochia (Kochia scoparia); 62 g ai/ha): 40
- Kochia plant response rating (kochia (Kochia scoparia); 125 g ai/ha): 20
- Kochia plant response rating (kochia (Kochia scoparia); 250 g ai/ha): 75
- Kochia plant response rating (kochia (Kochia scoparia); 500 g ai/ha): 80
- Plant response rating, Smartweed ([5]; 31 g ai/ha): 0
- Plant response rating, Smartweed ([5]; 62 g ai/ha): 75
- Nutsedge, Yellow plant response rating ([6]; 31 g ai/ha): 15
- Nutsedge, Yellow plant response rating ([6]; 62 g ai/ha): 35
- Nutsedge, Yellow plant response rating ([6]; 125 g ai/ha): 10
- Nutsedge, Yellow plant response rating ([6]; 250 g ai/ha): 0
- Nutsedge, Yellow plant response rating ([6]; 500 g ai/ha): 0
- Crabgrass, Large plant response rating ([7]; 31 g ai/ha): 0
- Crabgrass, Large plant response rating ([7]; 62 g ai/ha): 0
- Crabgrass, Large plant response rating ([7]; 125 g ai/ha): 0
- Crabgrass, Large plant response rating ([7]; 250 g ai/ha): 0
- Crabgrass, Large plant response rating ([7]; 500 g ai/ha): 0

SMILES: Cn1cc(C(=O)c2ccccc2)c(-c2cc(Cl)cc(Cl)c2)n1 [Compound 54, [3-(3,5-dichlorophenyl)-1-methyl-1H-pyrazol-4-yl]phenylmethanone]
- Plant response rating (0 to 100), Surinam Grass ([8]; 62 g ai/ha): 0
- Plant response rating (0 to 100), Surinam Grass ([8]; 125 g ai/ha): 0
- Plant response rating, Surinam Grass ([8]; 250 g ai/ha): 0
- Plant response rating (0 to 100), Bermudagrass ([9]; 31 g ai/ha): 0
- Plant response rating (0 to 100), Bermudagrass ([9]; 62 g ai/ha): 0
- Plant response rating (0 to 100), Bermudagrass ([9]; 125 g ai/ha): 0
- Plant response rating, Bermudagrass ([9]; 250 g ai/ha): 0
- Plant response rating (0 to 100), Bromegrass, Downy ([10]; 31 g ai/ha): 0
- Plant response rating (0 to 100), Bromegrass, Downy ([10]; 62 g ai/ha): 0
- Plant response rating (0 to 100), Bromegrass, Downy ([10]; 125 g ai/ha): 0
- Plant response rating, Bromegrass, Downy ([10]; 250 g ai/ha): 0
- Plant response rating (0 to 100), Foxtail, Green ([11]; 31 g ai/ha): 0
- Plant response rating (0 to 100), Foxtail, Green ([11]; 62 g ai/ha): 0
- Plant response rating (0 to 100), Foxtail, Green ([11]; 125 g ai/ha): 0
- Plant response rating, Foxtail, Green ([11]; 250 g ai/ha): 0
- Plant response rating (0 to 100), Barley ([12]; 31 g ai/ha): 0
- Plant response rating (0 to 100), Barley ([12]; 62 g ai/ha): 0
- Plant response rating (0 to 100), Barley ([12]; 125 g ai/ha): 0
- Plant response rating, Barley ([12]; 250 g ai/ha): 0
- Plant response rating (0 to 100), Windgrass ([13]; 62 g ai/ha): 0
- Plant response rating (0 to 100), Windgrass ([13]; 125 g ai/ha): 0
- Plant response rating, Windgrass ([13]; 250 g ai/ha): 0
- Kochia plant response rating (kochia (Kochia scoparia); 125 g ai/ha): 0
- Kochia plant response rating (kochia (Kochia scoparia); 250 g ai/ha): 28
- Plant response rating, Kochia (kochia (Kochia scoparia); 1000 g ai/ha): 97
- Plant response rating, Smartweed ([5]; 250 g ai/ha): 0

SMILES: Fc1cccc(NN=C(c2ccccc2)c2c[nH]nc2-c2cc(Cl)cc(Cl)c2)c1 [Compound 58]
- Plant response rating (0 to 100), Surinam Grass ([8]; 62 g ai/ha): 0
- Plant response rating (0 to 100), Surinam Grass ([8]; 125 g ai/ha): 0
- Plant response rating, Surinam Grass ([8]; 250 g ai/ha): 0
- Plant response rating, Surinam Grass ([8]; 500 g ai/ha): 0
- Plant response rating (0 to 100), Bermudagrass ([9]; 62 g ai/ha): 0
- Plant response rating (0 to 100), Bermudagrass ([9]; 125 g ai/ha): 0
- Plant response rating, Bermudagrass ([9]; 250 g ai/ha): 0
- Plant response rating, Bermudagrass ([9]; 500 g ai/ha): 10
- Plant response rating (0 to 100), Bromegrass, Downy ([10]; 62 g ai/ha): 0
- Plant response rating (0 to 100), Bromegrass, Downy ([10]; 125 g ai/ha): 0
- Plant response rating, Bromegrass, Downy ([10]; 250 g ai/ha): 0
- Plant response rating, Bromegrass, Downy ([10]; 500 g ai/ha): 0
- Plant response rating (0 to 100), Foxtail, Green ([11]; 62 g ai/ha): 0
- Plant response rating (0 to 100), Foxtail, Green ([11]; 125 g ai/ha): 0
- Plant response rating, Foxtail, Green ([11]; 250 g ai/ha): 0
- Plant response rating, Foxtail, Green ([11]; 500 g ai/ha): 30
- Plant response rating (0 to 100), Barley ([12]; 62 g ai/ha): 0
- Plant response rating (0 to 100), Barley ([12]; 125 g ai/ha): 0
- Plant response rating, Barley ([12]; 250 g ai/ha): 0
- Plant response rating, Barley ([12]; 500 g ai/ha): 0
- Plant response rating (0 to 100), Windgrass ([13]; 62 g ai/ha): 0
- Plant response rating (0 to 100), Windgrass ([13]; 125 g ai/ha): 0
- Plant response rating, Windgrass ([13]; 250 g ai/ha): 0
- Plant response rating, Windgrass ([13]; 500 g ai/ha): 0
- Plant response rating, Ducksalad [2]: 0
- Plant response rating, Sedge, Umbrella [3]: 0
- Plant response rating, Rice (rice (Oryza sativa)): 0
- Plant response rating, Barnyardgrass [4]: 0
- Plant response rating, Smartweed ([5]; 31 g ai/ha): 0
- Plant response rating, Smartweed ([5]; 125 g ai/ha): 50
